Measurements from US5478838A, “4-amino(alkyl)cyclohexane-1-carboxamide compound and use thereof” (Yoshitomi Pharmaceutical Industries, Ltd., priority 1991, dated 1995).

Key:
[1] = tested on: trachea; assay: Effect on acetylcholine-induced contraction of isolated trachea strips (bronchodilation), Pharmacological Experiment 4; set-up: species or system guinea pig (Hartley); conditions: Cavia porcellus; acetylcholine 10^-6 M contraction; papaverine 10^-4 M response taken as 100%
Experimental: Male Hartley guinea pigs weighing 260-390 g were anesthetized with sodium pentobarbital (100 mg/kg, i.p.). The guinea pigs were then dehematized and trachea was isolated. Ventral cartilage of the trachea was incised and ligament was insected to give 3 mm wide strips. The strips were suspended in a 40 ml-Magnus bath filled with Krebs-Henseleit solution (NaCl 117 mM; KCl 4.7 mM; CaCl2 2.5 mM; MgSO4 1.2 mM; NaHCO3 24.8 mM; KH2 PO4 1.2 mM; glucose 11.0 mM). The resting tension of 1 g was applied. The Magnus bath was constantly aerated with a mixed gas (95% oxygen+5% carbon dioxide gas). The tension of the strips was measured with an isometric transducer (TB-611T, Nihon Kohden, Japan) and recorded on a recorder (Ti-102, Tokai Irika, Japan). The strips were contracted with acetylcholine (10^-6 M) and after the contraction became stable, the compounds were cumulatively added to the bath and relaxing response was observed. The relaxation by the compounds was expressed as IC50 (μM), the concentration required to inhibit the papaverine (10^-4 M)-induced response (which was taken as 100%) by half.

[2] = tested on: thoracic aorta; assay: Relaxation of phenylephrine-contracted thoracic aorta ring strips (vasodilation), Pharmacological Experiment 2; conditions: Oryctolagus cuniculus; phenylephrine 10^-6 M; rabbit aorta ring strips; read-out: Vasodilation, IC50, concentration required to inhibit phenylephrine-induced contraction by half
Experimental: Male rabbits (weighing 1.9-3.0 kg) were anesthetized with sodium pentobarbital and dehematized to remove thoracic aorta. Ring strips (about 2 mm wide) were prepared and suspended in a 40 ml-Magnus bath filled with Krebs-Henseleit solution (NaCl 117 mM; KCl 4.7 mH; CaCl2 2.5 mH; MgSO4 1.2 mM; NaHCO3 24.8 mM; KH2 PO4 1.2 mM; glucose 11.0 mM). The resting tension of 2 g was applied. The Magnus bath was constantly aerated with a mixed gas (95% oxygen+5% carbon dioxide gas). The tension of the strips was measured by an isometric transducer (TB-611T, Nihon Kohden, Japan). The strips were contracted with phenylephrine (10^-6 M) and after the contraction became stable, the compounds were cumulatively added to the bath and relaxing response was observed. The vasodilating action of the compounds was expressed as IC50 (μM), the concentration required to inhibit phenylephurine-induced contraction (which was taken as 100%) by half.

[3] = tested on: left coronary artery; assay: Effect on coronary blood flow, perfused left coronary artery of anesthetized dogs, Pharmacological Experiment 3; type: in vivo, mongrel dog; conditions: intracoronary injection; for Increase in coronary blood flow, ED50: dose giving half of the effect of 3 μg nifedipine
Experimental: Groups of 2 or 3 adult mongrel dogs were anesthetized with an intravenous administration of 30 mg/kg body weight of sodium pentobarbital. According to the method of Yago et al [Folia Pharmacologica Japonica, vol. 57, p. 380 (1961)], the left coronary artery was perfused and its blood flow was measured. Test compound was injected into the coronary artery at a volume of 10-300 μg. The effects of the test compound on coronary blood flow were expressed as ED50 (μg), the dose required to increase the coronary blood flow by a half of the effects by the coronary artery injection of 3 μg of nifedipine [dimethyl 2,6-dimethyl-4-(2-nitrophenyl)-1,4-dihydropyridine-3,5-dicarboxylate].
The half life (T 1/2, minute) was also measured as the duration of effects.

[4] = Antihypertensive action in conscious, unrestrained SHR (i.v.), Pharmacological Experiment 1; type: in vivo, spontaneously hypertensive rats (SHR); conditions: 0.3 mg/kg i.v., change in blood pressure
Text: Catheters for blood pressure measurement and for drug administration were previously inserted into carotid artery and jugular vein of spontaneously hypertensive rats (SHR) weighing 350-450 g. […] The blood pressure was automatically measured and analyzed with a pressure transducer.

[5] = tested on: experimental asthma caused by histamine inhalation; assay: Effects on experimental asthma caused by histamine inhalation, Pharmacological Experiment 5; type: in vivo, guinea pig (Hartley); conditions: 0.2% histamine
Experimental: According to Suyama [Allergy, vol. 15, p. 549 (1966)], female Hartley guinea pigs weighing 490-630 g were placed in an aerosol inhalation device, and 0.2% histamine solution (histamine chloride, Nakarai Kagaku, Japan) was sprayed with an ultrasonic nebulizer (TUR-3200, Nihon Kohden, Japan). Protective action was examined using collapsing as an index. Inhalation of the test compound was performed by placing the guinea pigs in the aforementioned aerosol inhalation device and spraying the test compound dissolved in a physiological saline to a predetermined concentration for 5 minutes. Then, the guinea pigs were allowed to immediately inhale histamine and delay in collapsing by dyspnea was measured.

Question: With `CC(C)(N)[C@H]1CC[C@H](C(=O)Nc2ccnc3[nH]ncc23)CC1` [Example 7, trans-N-(1H-pyrazolo[3,4-b]pyridin-4-yl)-4-(1-amino-1-methylethyl)cyclohexanecarboxamido] as the molecule, how does the IC50 [1] read?
Answer: Its IC50 is 310 nM.

Question: What about the IC50 [2] of the same molecule?
Answer: The IC50 was 190 nM.

Question: And the “Increase in coronary blood flow, T 1/2 (half life as duration of effects)” value (“Increase … (half life as duration of effects)” below) [3]?
Answer: The value was 6.7 min.

Question: And the “Increase in coronary blood flow, ED50” value [3]?
Answer: Its value is 20 µg.

Question: And the “Antihypertensive action (SHR i.v.)” value [4]?
Answer: The value was -53 mmHg.

Question: With `CC(C)(N)[C@H]1CC[C@H](C(=O)Nc2ccnc3[nH]ccc23)CC1` [Example 4, trans-N-(1H-pyrrolo[2,3-b]pyridin-4-yl)-4-(1-amino-1-methylethyl)cyclohexanecarboxamide] as the molecule, how does the IC50 [1] read?
Answer: Its IC50 is 90 nM.

Question: What about the IC50 [2] of the same molecule?
Answer: The IC50 was 80 nM.

Question: What about the “Increase … (half life as duration of effects)” value [3] of the same molecule?
Answer: Its value is 3.8 min.

Question: And the “Increase in coronary blood flow, ED50” value [3]?
Answer: The value was 7.0 µg.

Question: And the “Antihypertensive action (SHR i.v.)” value [4]?
Answer: Its value is -77 mmHg.

Question: Which IC50 [1] does the source give for `C[C@@H](N)[C@H]1CC[C@H](C(=O)Nc2ccnc3[nH]ccc23)CC1` [Example 3, (+)-trans-N-(1H-pyrrolo[2,3-b]pyridin-4-yl)-4-(1-aminoethyl)cyclohexanecarboxamide] here?
Answer: The IC50 was 60 nM.

Question: What about the IC50 [2] of the same molecule?
Answer: The IC50 was 90 nM.

Question: And the “Average time until collapsing” value ([5]; 0.01% inhaled for 5 minutes)?
Answer: Its value is 152.4 ± 12.2 s.

Question: And the “Average time until collapsing” value ([5]; 0.1% inhaled for 5 minutes)?
Answer: Its value is 235.4 ± 40.2 s.

Question: What about the “Increase … (half life as duration of effects)” value [3] of the same molecule?
Answer: Its value is 2.7 min.

Question: And the “Increase in coronary blood flow, ED50” value [3]?
Answer: The value was 8.8 µg.

Question: And the “Antihypertensive action (SHR i.v.)” value [4]?
Answer: The value was -62 mmHg.

Question: What does the source list for `C[C@@H](N)[C@H]1CC[C@H](C(=O)Nc2ccnc3[nH]ncc23)CC1` [Example 6, (+)-trans-N-(1H-pyrazolo[3,4-b]pyridin-4-yl)-4-(1-aminoethyl)cyclohexanecarboxamide]?
Answer: IC50 [1]: 170 nM; IC50 [2]: 120 nM; Increase in coronary blood flow, T 1/2 (half life as duration of effects) [3]: 3.0 min; Increase in coronary blood flow, ED50 [3]: 4.3 µg; Antihypertensive action (SHR i.v.) [4]: -96 mmHg
